In patent publication US8187823B2, “Modulation of neuroglia-derived BDNF in the treatment and prevention of pain” (Université Laval, priority 2004, dated 2012):

Key:
LI neurons [1] = assay: Eanion of LI neurons in spinal slices from PNI rats with bath-applied agents; type: cell-based, rat; settings: TNP-ATP 1 μM bath-applied, slices from allodynic rats two weeks after PNI
Method: (§1) Peripheral nerve injury was induced by surgically implanting a polyethylene cuff (2 mm in length, inner diameter 0.7 mm) around the sciatic nerve of adult male Sprague-Dawley rats^3,17. For sham surgery, which was used as a control, animals had all surgical procedures exempt that the cuff was not implanted. The 50% withdrawal threshold, or 50% paw withdrawal threshold, to mechanical stimulation was assessed^3,18. […] In animals with peripheral nerve injury induced in this model, there was microglial activation in the spinal cord ipsilateral to the nerve cuff, as indicated by increased labeling for the microglial activation marker OX-42 (FIGS. 5B and 5C).
(§2) Slice preparation. Parasagittal slices (300-350 μm) of spinal cord were prepared from adult (>50 days old) male rats as previously described^31. Slices were continually superfused (2-3 ml min^−1) with artificial cerebrospinal fluid (ACSF) containing (in mM): 126 NaCl, 26 NaHCO3, 10 glucose, 2.5 KCl, 2 CaCl2, 2 MgCl2, 1.25 NaH2PO4 (bubbled with 95% O2/5% CO2, pH ˜7.4).
Recordings. For perforated-patch recordings, the pipette tip was filled with a solution containing (in mM): 130 potassium methyl sulphate (KMeSO4), 5 CsCl, 2 MgCl2, 11 BAPTA, 1 CaCl2, 4 ATP, 0.4 GTP, 10 HEPES (˜pH 7.4). […]

cultured microglia = assay: ELISA of BDNF protein in supernatant of cultured microglia; type: cell-based, rat; settings: ATP stimulation; TNP-ATP 10 μM; supernatant 5 hours after treatment
Method: Microglial cultures. Rat primary cultured microglia were prepared under standard conditions as described^2,21. In brief, mixed glial culture was prepared from neonatal Wistar rats and maintained for 10-16 days in DMEM medium with 10% fetal bovine serum. Microglia were separated from the primary culture by gentle shaking of the flask and replated on plastic dishes. The cells were removed from the dish surface using a cell scraper and collected in 100 μl of PBS; subsequently, the cell density of microglia was measured using a cell counter and the volume of PBS adjusted to give a final density of 1000 cells/10 μl. This method produces microglial cultures of >95% purity. For ATP-stimulation, the purified microglia were incubated with ATP (50 μM) for 1 hour. […]

[2] = test system: rats with peripheral nerve injury; settings: literature (ref. 2), acting on P2X receptors in microglia; cited from earlier work
LI neurons [3] = assay: Eanion of LI neurons in spinal slices from naïve rats with bath-applied BDNF; type: cell-based, rat; settings: BDNF 50 ng/ml, >90 min
Method: as §2
Recordings. For perforated-patch recordings, the pipette tip was filled with a solution containing (in mM): 130 potassium methyl sulphate (KMeSO4), 5 CsCl, 2 MgCl2, 11 BAPTA, 1 CaCl2, 4 ATP, 0.4 GTP, 10 HEPES (˜pH 7.4). The pipette was back-filled with this same solution supplemented with 25 μg ml^−1 gramicidin D [gramicidin stock was at 10 mg ml^−1 in dimethylsulphoxide (DMSO)]. Recordings in this mode were selected when access resistance was stable between 25-45 MΩ. For whole-cell voltage-clamp recordings, pipettes were filled with the above solution lacking gramicidin D. GABA was applied locally for 10-50 ms by pressure ejection through a micro-pipette. Data acquisition and analysis of PSCs were performed as previously described^19; membrane potential measurements were corrected as previously described^20. […] All measurements are given as means±SEM, except where indicated. […]

naïve rats = assay: Paw withdrawal threshold (WD50) after intrathecal delivery to naïve rats; type: in vivo, rat; settings: for paw withdrawal threshold (WD50): intrathecal delivery to naïve/intact rats
Method: as §1
Microglial cultures. Rat primary cultured microglia were prepared under standard conditions as described^2,21. In brief, mixed glial culture was prepared from neonatal Wistar rats and maintained for 10-16 days in DMEM medium with 10% fetal bovine serum. Microglia were separated from the primary culture by gentle shaking of the flask and replated on plastic dishes. The cells were removed from the dish surface using a cell scraper and collected in 100 μl of PBS; subsequently, the cell density of microglia was measured using a cell counter and the volume of PBS adjusted to give a final density of 1000 cells/10 μl. This method produces microglial cultures of >95% purity. For ATP-stimulation, the purified microglia were incubated with ATP (50 μM) for 1 hour.
Intrathecal injections and ELISA. At least three days before drug administration, rats were anaesthetized with sodium pentobarbital (65 mg kg^−1), and a lumbar spinal catheter (PE-10 polyethylene tube) was inserted into the intrathecal space^22. On recovery from surgery, lower-body paralysis was induced through intrathecal lidocaine (2%, 30 μl) injection to confirm proper catheter localization. […] At the doses used, none of the compounds produced motor disturbances or sedation, as assessed by grasping, righting and placing reflexes and behavioural observations^23. […]

Molecule	Eanion of LI neurons (LI neurons [1]) [mV]	release of BDNF from microglia in culture (cultured microglia)	nerve injury-induced tactile allodynia [2]	Eanion of LI neurons vs control untreated slices (LI neurons [3])	paw withdrawal threshold (WD50) (naïve rats)	paw withdrawal threshold (WD50) (naïve rats; listed as recombinant human BDNF)	time to significant decrease in WD50 (naïve rats; recombinant human BDNF 20 μg intrathecal, intact rats) [h]
TNP-ATP	−59.3±1.8	blocked	reverse nerve injury-induced tactile allodynia	–	–	–	–
Nc1ncnc2c1ncn2[C@@H]1O[C@H](COP(=O)(O)OP(=O)(O)OP(=O)(O)O)[C@@H](O)[C@H]1O [ATP]	–	caused release of BDNF	–	–	–	–	–
BDNF: brain-derived neurotrophic factor; recombinant human BDNF delivered intrathecally or bath-applied (protein, listed as Homo sapiens) MTILFLTMVISYFGCMKAAPMKEANIRGQGGLAYPGVRTHGTLESVNGPKAGSRGLTSLADTFEHVIEELLDEDQKVRPNEENNKDADLYTSRVMLSSQVPLEPPLLFLLEEYKNYLDAANMSMRVRRHSDPARRGELSVCDSISEWVTAADKKTAVDMSGGTVTVLEKVPVSKGQLKQYFYETKCNPMGYTKEGCRGIDKRHWNSQCRTTQSYVRALTMDSKKRIGWRFIRIDTSCVCTLTIKRGR	–	–	–	significantly less negative	decrease in paw withdrawal threshold	significant and transient decrease in the WD50	≤ 1
